From patent publication US20130217664A1, “NOVEL COMPOUNDS USEFUL FOR THE TREATMENT OF DEGENERATIVE AND INFLAMMATORY DISEASES” (priority 2012, published 2013)
Each block holds one molecule with its values, some of them ahead of it.

Legend:
[1] = tested on: BA/F3 cell line; experiment: BA/F3 viability assay; conditions: Mus musculus, BaF3, 48 h, read-out: BA/F3 IC50
[2] = target: T1, human TYK2 (Homo sapiens, UniProt P29597); experiment: TYK2 inhibition assay; format: biochemical; conditions: recombinant human TYK2 catalytic domain, polyGT substrate
T1 construct: catalytic domain (amino acids 871-1187; catalog number 08-147); purchased Carna Biosciences 08-147
T1 sequence (P29597 871-1187): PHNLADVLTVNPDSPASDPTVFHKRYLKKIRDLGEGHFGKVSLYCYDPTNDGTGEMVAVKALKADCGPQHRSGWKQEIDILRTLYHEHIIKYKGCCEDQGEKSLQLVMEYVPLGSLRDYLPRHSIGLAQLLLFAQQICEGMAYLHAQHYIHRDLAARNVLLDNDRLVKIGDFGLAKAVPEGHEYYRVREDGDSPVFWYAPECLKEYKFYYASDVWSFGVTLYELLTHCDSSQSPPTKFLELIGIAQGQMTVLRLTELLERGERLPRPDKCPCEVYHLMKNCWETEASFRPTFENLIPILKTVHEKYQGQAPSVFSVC
In short: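 Radiometric kinase reaction run 90 min at 30 °C, stopped with phosphoric acid, washed and scintillation-counted.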

[3] = target: T2, human JAK2 (Homo sapiens, UniProt O60674); experiment: JAK2 inhibition assay (polyGT substrate / Ulight-JAK1 peptide); format: biochemical; conditions: recombinant human JAK2 catalytic domain; polyGT or Ulight-JAK1 peptide assay
T2 construct: catalytic domain (amino acids 808-1132; catalog number PV4210); GST; purchased Invitrogen PV4210
In short: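 Radiometric: 0.025 mU JAK2 with 2.5 μg polyGT, 1 μM ATP plus ^33P-ATP in MOPS pH 7.5 buffer, 1% DMSO, 90 min at 30° C.; filter counting. Alternative TR-FRET format with Ulight-JAK1 peptide, 60 min at room temperature, Eu-anti-phosphotyrosine detection.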

[4] = tested on: CTLL-2 cell line; experiment: CTLL2 viability assay; format: cell-based; conditions: Mus musculus, IL-2 dependent CTLL2 viability, 24 h, ATP-lite
From the text: The protocol describes the methods to analyse the activity of compounds on their ability to sustain the IL2-dependent viability of CTLL2.
Final DMSO concentration was 0.1%.

[5] = target: T3, human JAK3 (Homo sapiens, UniProt P52333); experiment: JAK3 inhibition assay; format: biochemical; conditions: recombinant human JAK3 catalytic domain; polyGT substrate
T3 construct: catalytic domain (amino acids 781-1124; catalog number PV3855); purchased Invitrogen PV3855
In short: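 Radiometric kinase assay: 0.5 ng JAK3 with 2.5 μg polyGT in Tris pH 7.5/MgCl2 buffer, 1 μM ATP plus 0.25 μCi 33P-γ-ATP, 1% DMSO, 45 min at 30 °C, stopped with phosphoric acid.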

[6] = target: T4, human JAK1 (Homo sapiens, UniProt P23458); experiment: JAK1 inhibition assay (polyGT substrate / Ulight-JAK1 peptide); format: biochemical; conditions: recombinant human JAK1 catalytic domain; polyGT or Ulight-JAK1 peptide assay
T4 construct: catalytic domain, amino acids 866-1154; catalog number PV4774; purchased Invitrogen PV4774
In short: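 Two formats. PolyGT radiometric: 45 min at 30 °C, stopped with phosphoric acid, counted as cpm. Ulight-JAK1 peptide: 60 min at room temperature, stopped with Eu-anti-phosphotyrosine/EDTA, read as RFU. Percent inhibition normalised to vehicle and 10 μM staurosporine.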

T4 sequence (P23458 866-1154): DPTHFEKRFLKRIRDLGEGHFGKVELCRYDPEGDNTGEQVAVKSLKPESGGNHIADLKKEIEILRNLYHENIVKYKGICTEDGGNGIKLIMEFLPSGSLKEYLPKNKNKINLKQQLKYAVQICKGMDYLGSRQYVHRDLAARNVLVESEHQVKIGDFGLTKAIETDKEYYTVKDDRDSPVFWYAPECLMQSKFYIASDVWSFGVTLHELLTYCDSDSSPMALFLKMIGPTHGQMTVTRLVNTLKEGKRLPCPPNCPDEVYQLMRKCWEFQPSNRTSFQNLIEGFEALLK
T3 sequence (P52333 781-1124): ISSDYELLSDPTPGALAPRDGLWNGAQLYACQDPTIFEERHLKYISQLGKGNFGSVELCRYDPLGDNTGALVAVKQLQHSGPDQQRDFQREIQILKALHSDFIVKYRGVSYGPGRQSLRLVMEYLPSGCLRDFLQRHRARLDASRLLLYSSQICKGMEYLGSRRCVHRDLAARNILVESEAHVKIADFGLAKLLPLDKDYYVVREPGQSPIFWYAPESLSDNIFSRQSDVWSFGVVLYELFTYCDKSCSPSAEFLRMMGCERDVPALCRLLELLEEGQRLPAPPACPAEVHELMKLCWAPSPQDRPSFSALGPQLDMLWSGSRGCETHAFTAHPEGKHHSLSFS
T2 sequence (O60674 808-1132): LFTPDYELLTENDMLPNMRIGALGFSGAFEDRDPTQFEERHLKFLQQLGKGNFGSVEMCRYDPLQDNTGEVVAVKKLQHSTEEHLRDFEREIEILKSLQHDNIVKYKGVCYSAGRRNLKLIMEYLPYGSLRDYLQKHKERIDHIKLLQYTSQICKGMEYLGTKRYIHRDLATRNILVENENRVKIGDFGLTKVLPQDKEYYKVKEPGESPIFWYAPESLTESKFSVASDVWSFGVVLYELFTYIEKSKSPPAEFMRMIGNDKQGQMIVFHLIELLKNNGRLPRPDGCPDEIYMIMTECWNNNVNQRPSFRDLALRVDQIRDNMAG

Compound: CCc1cc(C2CN(S(=O)(=O)CCOC)C2)ccc1N(C)c1cc2c(cn1)ncn2C [Compound 349, {2-Ethyl-4-[1-(2-methoxy-ethanesulfonyl)-azetidin-3-yl]-phenyl}-methyl-(1-methyl-1H-imidazo[4,5-c]pyridin-6-yl)-amine]
IC50 [1]: 1000 to 5000 nM
IC50 [2]: 0.01 to 100 nM
IC50 [3]: 0.01 to 100 nM
IC50 [4]: > 1000 nM
IC50 [5]: 101 to 500 nM
IC50 [6]: 0.01 to 100 nM

Compound: CCc1cc(CNCC(F)F)ccc1N(C)c1cc2c(cn1)ncn2C [Compound 379]
IC50 [1]: > 5000 nM
IC50 [2]: 101 to 500 nM
IC50 [3]: 101 to 500 nM
IC50 [4]: > 1000 nM
IC50 [5]: 101 to 500 nM
IC50 [6]: 0.01 to 100 nM

Compound: CCc1cc(C2CN(C(=O)C3CCOCC3)C2)ncc1N(C)c1cc2c(cn1)ncn2C [Compound 337, (3-{4-Ethyl-5-[methyl-(1-methyl-1H-imidazo[4,5-c]pyridin-6-yl)-amino]-pyridin-2-yl}-azetidin-1-yl)-(tetrahydro-pyran-4-yl)-methanone]
IC50 [1]: > 5000 nM
IC50 [2]: > 1000 nM
IC50 [3]: > 1000 nM
IC50 [4]: > 1000 nM
IC50 [5]: > 1000 nM
IC50 [6]: 501 to 1000 nM

Compound: CCc1cc(CN2CC(C#N)C2)ccc1N(C)c1cc2c(cn1)ncn2C [Compound 381, 1-{3-Ethyl-4-[methyl-(1-methyl-1H-imidazo[4,5-c]pyridin-6-yl)-amino]-enzyl}-azetidine-3-carbonitrile]
IC50 [1]: > 5000 nM
IC50 [2]: 501 to 1000 nM
IC50 [3]: 101 to 500 nM
IC50 [4]: > 1000 nM
IC50 [5]: > 1000 nM
IC50 [6]: 0.01 to 100 nM

Second part, led by results:

IC50 [1]: > 5000 nM
IC50 [2]: 0.01 to 100 nM
IC50 [3]: 0.01 to 100 nM
IC50 [5]: 101 to 500 nM
IC50 [6]: 0.01 to 100 nM
Compound: CCc1cc(C(C#N)N2CCC(F)(F)CC2)ccc1N(C)c1cc2c(cn1)ncn2C (stereo not drawn) [Compound 395, (4,4-Difluoro-piperidin-1-yl)-{3-ethyl-4-[methyl-(1-methyl-1H-imidazo[4,5-c]pyridin-6-yl)-amino]-phenyl}-acetonitrile]
IC50 [4]: > 1000 nM

IC50 [1]: > 5000 nM
IC50 [2]: 101 to 500 nM
IC50 [3]: 0.01 to 100 nM
IC50 [5]: 101 to 500 nM
IC50 [6]: 0.01 to 100 nM
Compound: CN(c1cc2c(cn1)ncn2C)c1c(F)cc(CNS(C)(=O)=O)cc1F [Compound 404, N-{3,5-Difluoro-4[methyl-(1-methyl-1H-imidazo[4,5-c]pyridin-6-yl)-amino]-benzyl}-methanesulfonamide]
IC50 [4]: > 1000 nM

IC50 [1]: > 5000 nM
IC50 [2]: 501 to 1000 nM
IC50 [3]: 501 to 1000 nM
IC50 [5]: > 1000 nM
IC50 [6]: 101 to 500 nM
Compound: CCc1cc(N2CC(C(=O)NC)C2)ncc1N(C)c1cc2c(cn1)ncn2C [Compound 400, 1-{4-Ethyl-5-[methyl-(1-methyl-1H-imidazo[4,5-c]pyridin-6-yl)-amino]-pyridin-2-yl}-azetidine-3-carboxylic acid methylamide]
IC50 [4]: > 1000 nM

IC50 [1]: 1000 to 5000 nM
IC50 [2]: 0.01 to 100 nM
IC50 [3]: 0.01 to 100 nM
IC50 [5]: 101 to 500 nM
IC50 [6]: 0.01 to 100 nM
Compound: CCc1cc(N2CC(F)(F)C2)ncc1N(C)c1cc2c(cn1)ncn2C [Compound 413, [6-(3,3-Difluoro-azetidin-1-yl)-4-ethyl-pyridin-3-yl]-methyl-(1-methyl-1H-imidazo[4,5-c]pyridin-6-yl)-amine]
IC50 [4]: > 1000 nM

IC50 [1]: > 5000 nM
IC50 [2]: 0.01 to 100 nM
IC50 [3]: 0.01 to 100 nM
IC50 [5]: 0.01 to 100 nM
IC50 [6]: 0.01 to 100 nM
Compound: CCc1cc(C2(CC#N)COC2)ccc1N(C)c1cc2c(cn1)ncn2C [Compound 389, (3-{3-Ethyl-4-[methyl-(1-methyl-1H-imidazo[4,5-c]pyridin-6-yl)-amino]-phenyl}-oxetan-3-yl)-acetonitrile]
IC50 [4]: > 1000 nM

IC50 [1]: 1000 to 5000 nM
IC50 [2]: 0.01 to 100 nM
IC50 [3]: 0.01 to 100 nM
IC50 [5]: 0.01 to 100 nM
IC50 [6]: 0.01 to 100 nM
Compound: CCc1cc(CN(CC#N)S(C)(=O)=O)ccc1N(C)c1cc2c(cn1)ncn2C [Compound 388, N-Cyanomethyl-N-{3-ethyl-4-[methyl-(1-methyl-1H-imidazo[4,5-c]pyridin-6-yl)-amino]-benzyl}-methanesulfonamide]
IC50 [4]: > 1000 nM
